According to patent US9936701B2, “Herbicidal compounds” (Syngenta Participations AG, priority 2013, dated 2018):

Tests used:
[1] = tested on: a variety of test species; assay: Pre-emergence herbicidal activity (glasshouse, sprayed one day after sowing, evaluated after 13 days); format: in vivo; design: key: 5=total damage to plant; 0=no damage to plant; conditions: application pre-emergence, rate 1000 g/Ha, scale 0-5
Experimental: Seeds of a variety of test species were sown in standard soil in pots. After cultivation for one day (pre-emergence) under controlled conditions in a glasshouse (at 24/16° C., day/night; 14 hours light; 65% humidity), the plants were sprayed with an aqueous spray solution derived from the formulation of the technical active ingredient in acetone/water (50:50) solution containing 0.5% Tween 20 (polyoxyethelyene sorbitan monolaurate, CAS RN 9005-64-5). The test plants were then grown in a glasshouse under controlled conditions (at 24/16° C., day/night; 14 hours light; 65% humidity) and watered twice daily. After 13 days, the test was evaluated (5=total damage to plant; 0=no damage to plant).

[2] = tested on: a variety of test species; assay: Post-emergence herbicidal activity (glasshouse, sprayed after 8 days cultivation, evaluated after 13 days); format: in vivo; design: key: 5=total damage to plant; 0=no damage to plant; conditions: rate 1000 g/Ha, scale 0-5
Experimental: Seeds of a variety of test species were sown in standard soil in pots. After 8 days cultivation (post-emergence) under controlled conditions in a glasshouse (at 24/16° C., day/night; 14 hours light; 65% humidity), the plants were sprayed with an aqueous spray solution derived from the formulation of the technical active ingredient in acetone/water (50:50) solution containing 0.5% Tween 20 (polyoxyethelyene sorbitan monolaurate, CAS RN 9005-64-5). The test plants were then grown in a glasshouse under controlled conditions (at 24/16° C., day/night; 14 hours light; 65% humidity) and watered twice daily. After 13 days, the test was evaluated (5=total damage to plant; 0=no damage to plant).

SMILES | Pre-emergence herbicidal damage score, ABUTH [1] | Pre-emergence herbicidal damage score, ALOMY [1] | Pre-emergence herbicidal damage score, AMARE [1] | Pre-emergence herbicidal damage score, ECHCG [1] | Pre-emergence herbicidal damage score, SETFA [1] | Pre-emergence herbicidal damage score, ZEAMX [1] | ABUTH (Abutilon theophrasti) damage score, application post-emergence [2] | ALOMY (Alopecurus myosuroides) damage score, application post-emergence [2] | AMARE (Amaranthus retroflexus) damage score, application post-emergence [2] | ECHCG (Echinochloa crus-galli) damage score, application post-emergence [2] | SETFA (Setaria faberi) damage score, application post-emergence [2] | ZEAMX (Zea mays) damage score, application post-emergence [2]
CC1=C(Cl)C(=O)N(c2cc(C(C)(C)C)on2)C1OC(=O)C(C)C (stereo not shown) [A76] | 5 | 4 | 5 | 4 | 4 | 3 | 5 | 5 | 5 | 5 | 5 | 4
CC1=C(Cl)C(=O)N(c2cc(C(C)(C)C)on2)C1OC(=O)C(C)(C)C (stereo not shown) [A77] | 1 | 1 | 4 | 1 | 2 | 1 | 1 | 2 | 3 | 3 | 2 | 1
CCSC(=O)OC1C(C)=C(Cl)C(=O)N1c1cc(C(C)(C)C)on1 (stereo not shown) [A78] | 5 | 2 | 5 | 5 | 5 | 2 | 5 | 5 | 5 | 5 | 5 | 4
COC(=O)OC1C(C)=C(Cl)C(=O)N1c1cc(C(C)(C)C)on1 (stereo not shown) [A81] | 5 | 4 | 5 | 5 | 5 | 3 | 5 | 5 | 5 | 5 | 5 | 4
CC1=C(Cl)C(=O)N(c2cc(C(C)(C)C)on2)C1OC(=O)SCC(C)C (stereo not shown) [A82] | 1 | 0 | 3 | 1 | 1 | 0 | – | – | 2 | 2 | 2 | 1
C=COC(=O)OC1C(C)=C(Cl)C(=O)N1c1cc(C(C)(C)C)on1 (stereo not shown) [A83] | 5 | 4 | 5 | 5 | 5 | 4 | 5 | 5 | 5 | 5 | 5 | 4
CC#CCOC(=O)OC1C(C)=C(Cl)C(=O)N1c1cc(C(C)(C)C)on1 (stereo not shown) [A85] | 5 | 4 | 5 | 5 | 5 | 3 | 5 | 5 | 5 | 5 | 5 | 4
COc1ccc(OC(=O)OC2C(C)=C(Cl)C(=O)N2c2cc(C(C)(C)C)on2)cc1 (stereo not shown) [A86] | 3 | 3 | 5 | 2 | 2 | 1 | 2 | 3 | 5 | 2 | 3 | 0
COc1ccccc1OC(=O)OC1C(C)=C(Cl)C(=O)N1c1cc(C(C)(C)C)on1 (stereo not shown) [A87] | 2 | 2 | 3 | 1 | 1 | 0 | 2 | 2 | 4 | 3 | 2 | 0
CC1=C(Cl)C(=O)N(c2cc(C(C)(C)C)on2)C1OC(=O)OCC(C)(C)C (stereo not shown) [A88] | 5 | 4 | 5 | 5 | 5 | 3 | 5 | 5 | 5 | 5 | 5 | 5
CC1=C(Cl)C(=O)N(c2cc(C(C)(C)C)on2)C1OC(=O)c1ccc(C(F)(F)F)nc1 (stereo not shown) [A90] | 4 | 2 | 5 | 1 | 2 | 1 | 4 | 4 | 5 | 2 | 3 | 1
CC1=C(Cl)C(=O)N(c2cc(C(C)(C)C)on2)C1OC(=O)c1sccc1Cl (stereo not shown) [A91] | 1 | 2 | 4 | 0 | 0 | 0 | 2 | 2 | 5 | 1 | 1 | 0
CC1=C(Cl)C(=O)N(c2cc(C(C)(C)C)on2)C1OC(=O)c1ccno1 (stereo not shown) [A92] | 5 | 4 | 5 | 5 | 4 | 3 | 5 | 5 | 5 | 5 | 5 | 1
